Measurements: patent US11896685B2, “Core-shell network structure comprising biopolymer and composition comprising same” (AMOREPACIFIC CORPORATION, priority 2018, dated 2024)

Test system: human keratinocytes (HaCaT)
Assay: Scratch wound healing (skin regeneration) test, time-lapse microscopy
Assay type: cell-based
Settings: after 48 hours, scratched HaCaT
Experimental: First, human keratinocytes (HaCaT) purchased from CLS (Cat No. 300493) were seeded onto a 24-well cell culture plate at a concentration of 2.0×10^5 cells/600 μL, in DMEM (Lonza, #12-604F) containing 10% fetal bovine serum (GIBCO, #16000-044) and antibiotics (Lonza, #17-602E). After culturing in a 5% CO2 incubator at 37° C. for 24 hours and replacing the medium with DMEM containing 1% fetal bovine serum, the cells were cultured further for 16 hours. After the cells were filled on the culture plate, the cells were damaged by applying a linear scratch using a scratcher (SPL, #SPL201925) and then washed twice. Core-shell network solutions comprising 0.005 wt %, 0.25 wt %, 0.5 wt % or 1 wt % of the core-shell network structure based on the total weight of the solution, were prepared in the same manner as in Example 3 (Examples 4-7). […]
The negative control group, the positive control group and the groups treated with the core-shell network structure at different concentrations were placed on a time-lapse microscope (JuLI™ Stage, NanoEnT) stage in a CO2 incubator and each well was imaged for 48 hours with 1-hour intervals. Then, wound healing area (%) was determined from the acquired images using a software analysis tool (Wound Healing tool).

For madecassoside, the “wound healing area as compared to the negative control group” value was 1.37 times and the wound healing area (negative control 30.06%) was 41.25%.
